{
  "source": "patent US20120129831A1",
  "about": "“Substituted 3-(1,2,4-Oxadiazol-5-yl)-5-Phenylpiperidines” (BAYER PHARMA AKTIENGESELLSCHAFT, priority 2009, published 2012)",
  "molecular_target": "T1, human protease activated receptor 1 (PAR-1) (Homo sapiens, UniProt P25116)",
  "T1 construct": "the cell stably expresses the endogenous human PAR-1 receptor and the endogenous purinergic receptor P2Y2; endogenous in cells; host or cells: HEK293-derived recombinant cell line; only the mitochondrial aequorin is recombinant",
  "T1 sequence (P25116 22-425)": "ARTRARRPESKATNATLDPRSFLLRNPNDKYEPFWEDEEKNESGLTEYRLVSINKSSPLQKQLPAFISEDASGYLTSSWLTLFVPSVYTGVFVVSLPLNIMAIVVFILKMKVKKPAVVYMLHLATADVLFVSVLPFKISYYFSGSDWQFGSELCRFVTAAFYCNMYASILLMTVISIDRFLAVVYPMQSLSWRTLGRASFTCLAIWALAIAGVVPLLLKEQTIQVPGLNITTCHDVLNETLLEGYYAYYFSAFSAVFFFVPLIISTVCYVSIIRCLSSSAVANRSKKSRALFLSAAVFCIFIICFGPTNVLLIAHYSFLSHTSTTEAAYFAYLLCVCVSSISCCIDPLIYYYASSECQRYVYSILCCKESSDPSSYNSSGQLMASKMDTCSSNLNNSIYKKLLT",
  "experiment": "Cellular functional in vitro test (aequorin luminescence, PAR-1 antagonism)",
  "type": "cell-based",
  "conditions": "recombinant HEK293 aequorin cell line, endogenous human PAR-1; PAR-1 agonist at EC50; calcium luminescence",
  "description": "A recombinant cell line is used to identify antagonists of the human protease activated receptor 1 (PAR-1) and to quantify the activity of the substances described herein. The cell is originally derived from a human embryonal kidney cell (HEK293; ATCC: American Type Culture Collection, Manassas, Va. 20108, USA). The test cell line constitutively expresses a modified form of the calcium-sensitive photoprotein aequorin which, after reconstitution with the cofactor coelenterazine, emits light when the free calcium concentration in the inner mitochondrial compartment is increased (Rizzuto R, Simpson A W, Brini M, Pozzan T.; Nature 1992, 358, 325-327). Additionally, the cell stably expresses the endogenous human PAR-1 receptor and the endogenous purinergic receptor P2Y2. The resulting PAR-1 test cell responds to stimulation of the endogenous PAR-1 or P2Y2 receptor with an intracellular release of calcium ions, which can be quantified through the resulting aequorin luminescence with a suitable luminometer (Milligan G, Marshall F, Rees S, Trends in Pharmacological Sciences 1996, 17, 235-237). […]\nTest procedure: The cells are plated out two days (48 h) before the test in culture medium (DMEM F12, supplemented with 10% FCS, 2 mM glutamine, 20 mM HEPES, 1.4 mM pyruvate, 0.1 mg/ml gentamycin, 0.15% Na bicarbonate; BioWhittaker Cat. #BE04-687Q; B-4800 Verviers, Belgium) in 384-well microtitre plates and kept in a cell incubator (96% atmospheric humidity, 5% v/v CO2, 37° C.). […] The test substances are then pipetted onto the microtitre plate, and 5 minutes after the transfer of the test substances into the wells of the microtitre plate the plate is transferred into the luminometer, a PAR-1 agonist concentration which corresponds to EC50 is added and the resulting light signal is immediately measured in the luminometer. To distinguish an antagonist substance action from a toxic action, the endogenous purinergic receptor is immediately subsequently activated with agonist (ATP, final concentration 10 μM) and the resulting light signal is measured.",
  "data": [
    {"smiles": "O=C(N1CC(O)C1)N1CC(c2ccc(OC(F)(F)F)cc2)CC(c2nc(C3CC3)no2)C1", "note": "(single isomer, unassigned) [Example 7, {3-(3-Cyclopropyl-1,2,4-oxadiazol-5-yl)-5-[4-(trifluoromethoxy)phenyl]piperidin-1-yl}(3-hydroxyazetidin-1-yl)methanone]", "values": [
      {"measurement": "IC50", "value": 34, "unit": "nM"}
    ]},
    {"smiles": "COCCc1noc(C2CC(c3ccc(OC(F)(F)F)cc3)CN(C(=O)N3CC(O)C3)C2)n1", "note": "(single isomer, unassigned) [Example 9, (3-Hydroxyazetidin-1-yl){3-[3-(2-methoxyethyl)-1,2,4-oxadiazol-5-yl]-5-[4-(trifluoromethoxy)-phenyl]piperidin-1-yl}methanone]", "values": [
      {"measurement": "IC50", "value": 28, "unit": "nM"}
    ]},
    {"smiles": "CCOCCc1noc(C2CC(c3ccc(CC)cc3)CN(C(=O)N3CCC(O)CC3)C2)n1", "note": "(single isomer, unassigned) [Example 15, {3-[3-(2-Ethoxyethyl)-1,2,4-oxadiazol-5-yl]-5-(4-ethylphenyl)piperidin-1-yl}(4-hydroxypiperidin-1-yl)methanone]", "values": [
      {"measurement": "IC50", "value": 8.6, "unit": "nM"}
    ]}
  ]
}
